Experimental findings from PubChem BioAssay (NCI) are described below.

Among the test systems are CCRF-CEM leukemia; NCI-H226 lung; OVCAR-8 ovarian; SF-295 CNS; SK-MEL-5 melanoma; SNB-19 CNS; SW-620 colon; TK-10 renal; U251 CNS; A498 renal.
Holding throughout (assay): growth of human tumour cells (NCI), 48 h

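Protocol summary: plate cells (96-well), add compound at 5 concentrations, incubate 48 h, interpolate endpoints linearly. GI50 = concentration required for 50% inhibition of growth. At the TGI there is no net growth.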 Where only a bound is given, the exact number is not on record here.

Consider `COC(=O)N1CC2C3C4CC(C(c5ccccc5)=C4c4ccccc4)C3C21` (configuration not stated), for which the TGI was 43.4 µM in the test on CCRF-CEM leukemia; 29.6 µM with NCI-H226 lung; 35.7 µM with OVCAR-8 ovarian; 32.4 µM in the test on SF-295 CNS; 25.9 µM with SK-MEL-5 melanoma; 57.5 µM in the test with SNB-19 CNS. Also, the TGI in the test with SW-620 colon is 40.4 µM; with TK-10 renal, 30.8 µM; in the test on U251 CNS, 27.5 µM.
With `COC(=O)c1cnc(Cl)cn1`, the TGI in the test on CCRF-CEM leukemia, with NCI-H226 lung, in the test with OVCAR-8 ovarian, in the test on SF-295 CNS, with SK-MEL-5 melanoma and in the test with SNB-19 CNS was over 100 µM throughout. The TGI in the test with SW-620 colon, in the test on TK-10 renal and with U251 CNS was over 100 µM in each case.
`CC(C)C(N)=O`: the TGI with CCRF-CEM leukemia, in the test with NCI-H226 lung, in the test on OVCAR-8 ovarian, in the test on SF-295 CNS, in the test on SK-MEL-5 melanoma and in the test with SW-620 colon was over 5000 µM throughout. In addition, the TGI in the test on TK-10 renal and in the test with U251 CNS was over 5000 µM throughout.
On to `O=C(O)/C(Cc1ccc([N+](=O)[O-])cc1)=N\O`, for which the TGI in the test with A498 renal, with CCRF-CEM leukemia, in the test on NCI-H226 lung, in the test on OVCAR-8 ovarian, in the test on SF-295 CNS and in the test with SK-MEL-5 melanoma was over 100 µM in each case. Also, the TGI in the test with SNB-19 CNS, in the test on SW-620 colon, in the test with TK-10 renal and in the test with U251 CNS was over 100 µM throughout.
On to `O=C(Nc1ccc(-n2ccc3c(NC(=O)c4ccccc4)ncnc32)cc1)Nc1cccc(Cl)c1Cl`, for which the GI50 in the test on A498 renal was 0.752 µM; in the test on CCRF-CEM leukemia, 0.531 µM; with NCI-H226 lung, 1.07 µM; in the test on OVCAR-8 ovarian, 1.07 µM; in the test with SF-295 CNS it was 2.22 µM; in the test with SK-MEL-5 melanoma it was 1.35 µM. Moreover, the GI50 in the test with SNB-19 CNS is 1.44 µM; in the test on SW-620 colon it was 0.998 µM; in the test on TK-10 renal it was 1.01 µM; with U251 CNS, 0.571 µM. The TGI is 2.04 µM in the test on A498 renal; 3.21 µM with CCRF-CEM leukemia; 4.87 µM in the test on NCI-H226 lung; 2.6 µM in the test with OVCAR-8 ovarian; over 50 µM in the test with SF-295 CNS; 9.99 µM with SK-MEL-5 melanoma. Further, the TGI in the test with SNB-19 CNS was 5.84 µM; with SW-620 colon, 2.36 µM; with TK-10 renal it was 2.34 µM; in the test with U251 CNS, 1.4 µM.
As to `CCOC(=O)CC1(c2cccc3ccccc23)OC(=O)c2ccccc21` (configuration not stated), the TGI with A498 renal is over 100 µM; with CCRF-CEM leukemia, over 100 µM; with NCI-H226 lung, over 100 µM; in the test on OVCAR-8 ovarian, over 100 µM; with SF-295 CNS, over 100 µM; in the test with SK-MEL-5 melanoma, 63.8 µM. Moreover, the TGI with SNB-19 CNS, in the test on SW-620 colon, in the test on TK-10 renal and in the test on U251 CNS was over 100 µM throughout.
With `O=C(O)CC1NCc2cc3ccccc3nc21` (configuration not stated), the TGI with A498 renal, in the test on CCRF-CEM leukemia, in the test on NCI-H226 lung, in the test on OVCAR-8 ovarian, in the test with SF-295 CNS and in the test with SK-MEL-5 melanoma was over 100 µM each time. For the same compound, the TGI with SNB-19 CNS, in the test on SW-620 colon, with TK-10 renal and with U251 CNS was over 100 µM in each case.
With `CC(=O)NC1=C[C@@H]([C@H]2COC(C)(C)O2)OC1=O`, the TGI with A498 renal, in the test on CCRF-CEM leukemia, in the test on NCI-H226 lung, with OVCAR-8 ovarian, in the test on SF-295 CNS and in the test with SK-MEL-5 melanoma was over 100 µM in each case. Besides, the TGI with SNB-19 CNS, with SW-620 colon and in the test on U251 CNS was over 100 µM each time.
For `O=C1Nc2ccc(Cl)cc2/C1=C\c1c(Cl)nc2sccn12`, the TGI is 8.66 µM in the test with A498 renal; 62.3 µM in the test on CCRF-CEM leukemia; over 100 µM with OVCAR-8 ovarian; 25.3 µM in the test on SF-295 CNS; over 100 µM in the test with SNB-19 CNS; over 100 µM in the test with SW-620 colon. Besides, the TGI with TK-10 renal and with U251 CNS was over 100 µM in each case.
Turning to `C=C(OC1C(C)=C2C(C1OC(=O)CCCCCCC)C(C)(OC(C)=O)CC(OC(=O)CCC)C1(O)C2OC(=O)C1(C)O)/C(C)=C/C` (configuration not stated), the TGI amounted to 3.29 µM in the test on A498 renal; 6.24 µM in the test on CCRF-CEM leukemia; 0.226 µM in the test with NCI-H226 lung; 5.98 µM with OVCAR-8 ovarian; 3.22 µM in the test on SF-295 CNS; 3.16 µM in the test on SNB-19 CNS. The TGI with SW-620 colon came out at 2.05 µM; in the test on U251 CNS it was 1.73 µM. For the same compound, the GI50 in the test with CCRF-CEM leukemia is under 0.0001 µM; with NCI-H226 lung it was under 0.0001 µM; in the test on OVCAR-8 ovarian, 0.000243 µM; in the test on SF-295 CNS, under 0.0001 µM; with SK-MEL-5 melanoma it was under 0.0001 µM; with SW-620 colon, under 0.0001 µM. In the test on U251 CNS, the GI50 is under 0.0001 µM.
With `c1csc(C[N+]23CN4CN(CN(C4)C2)C3)c1`, the TGI with CCRF-CEM leukemia was 44.9 µM; with NCI-H226 lung it was over 100 µM; in the test with OVCAR-8 ovarian, 74.9 µM; with SF-295 CNS it was over 100 µM; in the test with SK-MEL-5 melanoma, 35.8 µM; in the test with SNB-19 CNS, over 100 µM. The figures for the TGI with SW-620 colon, in the test with TK-10 renal and with U251 CNS were 90.7 µM, 79.5 µM and 45.7 µM, respectively.
